Source: article doi:10.1101/718940v1 (biorxiv, 2019)

Target: TENT4B (PAPD5) (Homo sapiens, UniProt Q8NDF8)
Assay: ATP depletion polyadenylation assay
Assay type: biochemical

Chain of TENT4B (PAPD5) (Q8NDF8 whole entry): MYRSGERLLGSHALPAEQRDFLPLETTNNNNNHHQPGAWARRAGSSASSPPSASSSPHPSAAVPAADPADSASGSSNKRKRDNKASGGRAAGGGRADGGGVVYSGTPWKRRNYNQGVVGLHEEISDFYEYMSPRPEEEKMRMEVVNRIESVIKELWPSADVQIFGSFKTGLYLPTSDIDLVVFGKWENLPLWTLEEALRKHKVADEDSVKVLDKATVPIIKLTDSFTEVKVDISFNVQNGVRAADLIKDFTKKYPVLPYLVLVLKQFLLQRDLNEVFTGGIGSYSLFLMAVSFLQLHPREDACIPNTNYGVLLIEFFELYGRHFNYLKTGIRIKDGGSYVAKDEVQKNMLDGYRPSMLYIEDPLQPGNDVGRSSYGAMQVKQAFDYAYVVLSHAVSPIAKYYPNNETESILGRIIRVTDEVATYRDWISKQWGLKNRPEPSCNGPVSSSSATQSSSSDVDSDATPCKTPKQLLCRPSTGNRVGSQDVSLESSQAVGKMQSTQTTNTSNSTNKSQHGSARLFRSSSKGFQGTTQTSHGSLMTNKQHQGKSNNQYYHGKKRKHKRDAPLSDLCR

Structure (SMILES) | IC50
COCCCOc1cc2c(cc1OC)-c1cc(=O)c(C(=O)O)cn1[C@H](C(C)C)C2 [RG7834] | 1.3 nM
COCCCOc1cc2c(cc1OC)-c1cc(=O)c(C(=O)O)cn1[C@@H](C(C)C)C2 [RO0321] | 76 nM
